Measurements: PubChem BioAssay (NCI)
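Assay format: 96-well plates, 48-hour exposure. GI50 = concentration required for 50% inhibition of growth. TGI is the concentration that stops growth completely.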

Columns and labels:
Test in all cases: NCI anticancer screen, dose series, 48 h
HCC-2998 colon = system: HCC-2998 colon
K-562 leukemia = system: K-562 leukemia
LOX IMVI melanoma = system: LOX IMVI melanoma
NCI-H23 lung = system: NCI-H23 lung
OVCAR-3 ovarian = system: OVCAR-3 ovarian
OVCAR-4 ovarian = system: OVCAR-4 ovarian
SNB-75 CNS = system: SNB-75 CNS
T-47D breast = system: T-47D breast
TK-10 renal = system: TK-10 renal
U251 CNS = system: U251 CNS

| SMILES | TGI (HCC-2998 colon) [µM] | TGI (K-562 leukemia) [µM] | TGI (LOX IMVI melanoma) [µM] | TGI (NCI-H23 lung) [µM] | TGI (OVCAR-3 ovarian) [µM] | TGI (OVCAR-4 ovarian) [µM] | TGI (SNB-75 CNS) [µM] | TGI (T-47D breast) [µM] | TGI (TK-10 renal) [µM] | TGI (U251 CNS) [µM] | GI50 (HCC-2998 colon) [µM] | GI50 (K-562 leukemia) [µM] | GI50 (LOX IMVI melanoma) [µM] | GI50 (NCI-H23 lung) [µM] | GI50 (OVCAR-3 ovarian) [µM] | GI50 (OVCAR-4 ovarian) [µM] | GI50 (SNB-75 CNS) [µM] | GI50 (T-47D breast) [µM] | GI50 (TK-10 renal) [µM] | GI50 (U251 CNS) [µM] |
| --- | --- | --- | --- | --- | --- | --- | --- | --- | --- | --- | --- | --- | --- | --- | --- | --- | --- | --- | --- | --- |
| CCNCC(=O)Nc1ccc2c(c1)C(=O)c1ccc(NC(=O)CNCC)cc1C2=O | 3.75 | 4.91 | 6.58 | 14.8 | 8.74 | 2.24 | 7.44 | 17.1 | 18.7 | 5.3 | – | – | – | – | – | – | – | – | – | – |
| COc1cc(CSc2nc3ccc(Cl)cc3c(=O)n2Cc2ccccc2)cc(OC)c1OC | > 100 | > 100 | > 100 | > 100 | 11.6 | > 100 | 4.09 | > 100 | 51.8 | 35.7 | 6.18 | 1.19 | 5.97 | 8.48 | 3.2 | 4.99 | 1.15 | 3.92 | 10.3 | 4.36 |
| Clc1cc(Br)ccc1-c1ccc(CNCC2CCNCC2)o1 | 3.45 | 3.46 | 3.7 | 13.6 | 3.27 | 4.49 | 2.88 | 3.93 | 3.37 | 4.03 | 1.86 | 1.45 | 1.86 | 3.43 | 1.75 | 1.86 | 1.26 | 1.98 | 1.75 | 2.17 |
| COC(=O)c1c2c(c(C)[n+]([O-])c1C)C(=O)C(NCc1ccccc1)=CC2=O | 7.98 | 16.3 | 10.2 | 6.09 | 3.67 | 2.4 | 13.9 | 5.35 | 18.7 | 7.11 | 2.8 | 2.94 | 2.72 | 2.03 | 0.613 | 1.13 | 3.62 | 1.88 | 4.48 | 2.46 |
| CC1(C)C(=O)/C=C\C(=O)C(C)(C)C2=CC=C(O2)C(C)(C)C(=O)C(Br)C(Br)C(=O)C(C)(C)C2=CC=C1O2 (stereo not drawn) | > 100 | 45.4 | > 59.6 | > 100 | 68.9 | > 100 | > 80.3 | > 100 | > 100 | > 81.8 | – | – | – | – | – | – | – | – | – | – |
| c1cc(OCCN2CCCC2)ccc1CNc1ccc2nc(CCC3CCCCC3)[nH]c2c1 | 4.29 | 2.11 | 3.11 | 8.17 | 3.52 | 12.7 | 3.31 | 4.9 | 7.97 | 3.16 | 2.03 | 0.414 | 1.67 | 2.45 | 1.67 | 2.64 | 1.27 | 1.81 | 2.98 | 1.41 |
| CCCCCN(CCCCC)CCC[C@@H](C)[C@H]1CC[C@H]2[C@@H]3[C@H](OCCCN)C[C@@H]4C[C@H](OCCCN)CC[C@]4(C)[C@H]3C[C@H](OCCCN)[C@]12C | 24.9 | 4.33 | 10.2 | 20.6 | 36.1 | 32.6 | 22.8 | 30.3 | – | 18.4 | 7.98 | 1.84 | 2.16 | 4.36 | 17 | 14.3 | 7.52 | 10 | – | 4.53 |
| COc1cc2c3c(n(CCCN=[N+]=[N-])c(=O)c2cc1OC)-c1ccc(F)cc1C3=O | > 100 | > 100 | > 100 | > 100 | > 100 | > 100 | 90.2 | > 100 | > 100 | 55.6 | 16.3 | 19.3 | 4.04 | 14.1 | 6.11 | 55.9 | 21.1 | 3.92 | 73.7 | 4.6 |
| COc1ccc(Sc2[nH]c(C=O)c3ccccc23)cc1 | 18.2 | 14.2 | 25.4 | 32.3 | 24.2 | 61.7 | 25.5 | 30.2 | 45.1 | 24.8 | 5.44 | 2.14 | 12.3 | 14.3 | 11.9 | 22.4 | 11.9 | 9.08 | 10.6 | 12.3 |
| O=C(Nc1ccc(I)cc1F)c1cc(Br)ccc1O | 10.7 | > 100 | 2.75 | 3.34 | 11.3 | > 23.1 | 2.23 | 2.54 | 9.3 | > 100 | 2.77 | 0.431 | 0.474 | 0.472 | 0.457 | 0.442 | 0.451 | 0.353 | 1.62 | 0.754 |
